Reference: patent publication US20050191348A1 (priority 2004, published 2005)

Experiments:
PC12 cells = test: Cell death under serum deprivation (apoptotic cell death detection ELISA), PC12; type: cell-based, rat; details: PC12, 24 h serum deprivation, significant at 1 and 10 μM
Procedure: Two different neuronal cell lines were used: the rat PC12 and the human neuroblastoma SH-SY5Y cells.
PC12 cells, originated from rat pheochromocytoma, were grown to confluence in T75 flasks containing DMEM (1000 mg/l glucose) and supplemented with 5% FCS, 10% horse serum, and a mixture of 1% of penicillin/streptomycin/nystatin.
(§2) Cell cultures were incubated at 37° C. in a humid 5% CO2-95% air environment. For cell viability assays, cells were treated with various drugs in serum free media containing 0.1% BSA.
(§3) In order to test cell viability, PC12 cells and SH-SY5Y neuroblastoma cels were incubated under serum deprivation and were untreated or treated with rasagiline (0.1. 1 or 10 μM) for 24 hours.

sAPPα [1] = test: sAPPα release into medium of PC12 cells; type: cell-based, rat; details: PC12, 0.1, 1 and 10 μM, 3 h
Procedure: (§1) For the experiments, cells were seeded (2×10^6) onto 100-mm plates (for SH-SY5Y cells) or T75 flasks (for PC12 cells) in culture medium supplemented with full serum for 48 h. The cells were replaced with fresh medium containing 0.5% FCS for an additional 24 h (subconfluent culture), and then the experiments were performed in fresh medium containing 0.5% FCS for the indicated time periods at 37° C. After incubation with various drugs, the conditioned media were collected, centrifuged at 3500 g (10 min, 4° C.) to remove cell debris, and the cleared supernatants were concentrated 10-fold by lyophilization.
(vii) Determination of sAPP. […] Immunoreactivity was detected using anti-mouse IgG-conjugated with HRP and an enhanced chemiluminescence method (Amersham, Pharmacia Biotech, UK). Blots were developed for different times to span a linear range of response, and the relative intensity of immunoreactive bands on the exposed films was quantified by computer-assisted densitometry program (Quantity One, Bio-Rad, Hercules, Calif., USA).
We further characterized, in detail, the effect of rasagiline on APP processing and the signaling pathways that are involved. Thus, SH-SY5Y neuroblastoma cells were incubated for 3 h without or with increasing concentrations of rasagiline (0.1, 1 and 10 μM), and sAPPα was measured in the media as described in Materials and Methods. […]

PKC = PKC phosphorylation in PC12 cell lysates, Western blot with p-PKC (pan) antibody; type: cell-based, rat; details: PC12, 0.1, 1 and 10 μM, 1 h
Procedure: (iv) Immunoblot Analyses. For Western blot analyses, attached cells were washed once in cold PBS and then lysed in 1× nonreducing Laemmli buffer followed by boiling for 3-5 min. Protein content was determined using the Bradford method. Equal amounts of protein were separated by SDS-polyacrylamide gel electrophoresis and blotted onto polyvinylidene difluoride (PVDF) membranes (Millipore). Membranes were treated with blocking buffer (5% dry milk in PBS or 5% dry milk, 0.05% Tween 20 (Sigma) in TBS). Primary antibodies were diluted in PBS or in TBS containing 5% BSA, 0.05% Tween 20 and incubated with membranes for 20 h at 4° C., followed by incubation (1 h at room temperature) in dilutions of horseradish peroxidase (HRP)-conjugated secondary antibodies in the same buffers. Following antibody incubations, membranes were washed in 0.5% Tween 20 in PBS or TBS. Detection was achieved using ECL™ Western Blotting Detection Reagent (Amersham, Pharmacia, Little Chalfort Buckinghamshire, UK). Quantification of results was accomplished by measuring the optical density of the labeled bands from the autoradiograms by scanning laser densitometry using the computerized imaging program Bio-ID (Imager, Bio1D software; Vilber Lourmat, Marne La Vallee, France). The values were normalized to β-actin intensity levels.
Since activation of PKC has been shown previously to modulate cell viability, resulting in protection of neuronal cells, it was of interest to investigate the effects of rasagiline on PKC activation. In one experiment, PC12 cells were untreated or treated with various concentrations of rasagiline (0.1, 1 and 10 μM) for 1 hour. […] Phosphorylation of PKC was analyzed in cell lysates by Western blotting and detected with p-PKC (pan) antibody.
The effect of propargylamine on PKC phosphorylation/activation was investigated as described in Example 2 above.

MAPK = MAPK activation (phospho-p44/42 MAPK immunoblot) in PC12 cells; type: cell-based, rat; details: PC12, 0.1, 1 and 10 μM, 0.5 h
Procedure: (viii) Extracellular signal-regulated kinase (ERK) activity. The kinase activity of the ERKs was measured using the MAPK assay kit (Cell Signaling Technology) according to the manufacturer's protocol. In brief, for kinase activity assays, PC12 cells were grown in 6-well plates (5×10^5 cells/well). Eighteen to twenty-four hours before experiments, the medium was replaced with DMEM with 0.5% FCS and treated as described in the figures. Experimental treatments were performed in 1 ml medium containing 0.5% FCS, with the vehicle or test drugs and/or inhibitors at 37° C., as described in the figures. After treatment, reactions were stopped by placing cells on ice and aspirating the medium. Cells were harvested in 50 mM Tris-HCl, pH 8.0, 150 mM NaCl, 5 mM EDTA, 1 mM DTT, 1% Triton X-100, and protease- and phosphatase-inhibitor cocktails. Protein concentration was determined by the Bradford method. As described previously (Yogev-Falach et al., 2002), each cell lysate, containing 30 μg protein, was separated on 4-12% SDS-polyacrylamide electrophoresis gels, immunoblotted, and identified using phospho-p44/42 MAPK (Thr202/Tyr204) antibody or p44/42 MAPK antibody. Data are representative of three to six independent experiments.
To study the effect of rasagiline on MAPK activation, PC12 cells were treated for 0.5 h with increasing concentrations of rasagiline (0.1, 1 and 10 μM), and quantification of the phospho-MAPK blots were normalized using the total MAPK blots, or PC12 cells were preincubated for 15 min with vehicle alone, or with PD98059 (30 μM) or GF109203X (2.5 μM) and then incubated without or with rasagiline (10 μM) for 0.5 h. Aliquots of cell lysates were then subjected to immunoblot analysis and probed with anti-phospho-MAPK (top blots) and anti-MAPK (bottom blots).
For the effect of propargylamine on MAPK activation, PC12 cells were treated for 0.5 h with increasing concentrations of propargylamine (0.1, 1 and 10 μM). Aliquots of cell lysates were then subjected to immunoblot analysis and probed with anti-phospho-MAPK and anti-MAP kinase. Quantification of the phospho-MAPK were normalized using the total MAPK blots.

sAPPα [2] = test: sAPPα release into medium of SH-SY5Y neuroblastoma cells; type: cell-based, human; details: SH-SY5Y, 0.1, 1 and 10 μM, 3 h, versus untreated cells
Procedure: as §1
(vii) Determination of sAPP. Protein concentrations of cell lysates were assayed using Bradford reagent (Sigma Chemical). Equal amounts of volumes of conditioned medium, standardized to lysate protein, were subjected to […], using either the MAbs 22C11 or 6E10 in 50 mM Tris-HCl, pH 7.4, 150 mM NaCl, containing 0.05% Tween 20 and 1% BSA. Immunoreactivity was detected using anti-mouse IgG-conjugated with HRP and an enhanced chemiluminescence method (Amersham, Pharmacia Biotech, UK). Blots were developed for different times to span a linear range of response, and the relative intensity of immunoreactive bands on the exposed films was quantified by computer-assisted densitometry program (Quantity One, Bio-Rad, Hercules, Calif., USA).
It was of interest to determine whether rasagiline and other propargylamine-containing drugs also regulate APP processing. For this purpose, SH-SY5Y neuroblastoma cells were incubated for 3 h without or with 1 μM of various drugs (TV3326 and its S-isomer TV3279, rasagiline and its S-isomer TVP1022, selegiline, aminoindan), and sAPPα was measured in the media as described in Materials and Methods.
We further characterized, in detail, the effect of rasagiline on APP processing and the signaling pathways that are involved. Thus, SH-SY5Y neuroblastoma cells were incubated for 3 h without or with increasing concentrations of rasagiline (0.1, 1 and 10 μM), and sAPPα was measured in the media as described in Materials and Methods.
For the sAPPα release, SH-SY5Y neuroblastoma cells or PC12 cells were incubated for 3 h without or with increasing concentrations of propargylamine (0.1, 1 and 10 μM), and sAPPα was measured in the media as described in Materials and Methods.

[3] = system: SH-SY5Y neuroblastoma cells; test: Cell death under serum deprivation (apoptotic cell death detection ELISA), SH-SY5Y; type: cell-based, human; details: 24 h serum deprivation, significant at 1 and 10 μM
Procedure: (ii) Cell culture, viability measurements and experimental treatments. Two different neuronal cell lines were used: the rat PC12 and the human neuroblastoma SH-SY5Y cells.
SH-SY5Y neuroblastoma cells were plated in 100-mm culture dishes and cultured in Dulbecco's modified Eagle's medium (DMEM; 4500 mg/l glucose), containing 10% fetal calf serum (FCS) and a mixture of 1% penicillin/streptomycin/nystatin.
as §2
(iii) Measurement of cell death.
as §3
In order to test cell viability, PC12 cells and SH-SY5Y neuroblastoma cels were incubated under serum deprivation and were untreated or treated with propargylamine (0.1. 1 or 10 μM) for 24 hours.

C#CCN [propargylamine]
cell death induced by serum deprivation (PC12 cells): significantly reduced cell death | sAPPα released into the medium (sAPPα [1]): significant, dose-dependent increase in sAPPα | PKC phosphorylation (PKC): significant, dose-dependent increase in PKC phosphorylation | MAPK phosphorylation (MAPK): induced MAPK phosphorylation | sAPPα released into the medium (sAPPα [2]): significant, dose-dependent increase in sAPPα | cell death induced by serum deprivation [3]: significantly reduced cell death
